From publication PMC11555526, “Development of 2-Aminoadenine-Based Proteolysis-Targeting Chimeras (PROTACs) as Novel Potent Degraders of Monopolar Spindle 1 and Aurora Kinases” (ACS Pharmacology & Translational Science, 2024) come the findings set out here.

The target in test [1] is T1, AURKB (MV4-11^AURKB-HiBiT cells) (Homo sapiens, UniProt Q96GD4).
T1 construct: expressed in transfected cells; host or cells: MV4-11, lentiviral transduction (pRRL-PGK vector)
The test can be described thus: HiBiT assay, AURKB degradation. It is filed as cell-based. Further details: key to Dmax (maximal degradation) AURKB: compounds with degradation less than 15% reported as “inactive”. To be noted: 6 h treatment; for DC50: read-out: DC50 (half-maximal degradation concentration) AURKB. On the procedure:
(§1) The effects of the synthesized compounds on AURKA, AURKB, and TTK mitotic kinases were then assessed in cellular systems. For this, HiBiT cell lines were generated for all three mitotic kinases. A small 11 amino acid peptide fragment of luciferase (HiBiT) was fused to the coding sequence of the proteins and stably transduced in the MV4-11 cell line (MV4-11^AURKA-HiBiT, MV4-11^AURKB-HiBiT, and MV4-11^HiBiT-TTK).
(§2) The stable cell lines MV4-11^AURKA-HiBiT, MV4-11^AURKB-HiBiT, and MV4-11^HiBiT-TTK cells were generated by lentiviral infection. Lentivirus was produced using the respective HiBiT vector, plasmids psPAX2, and pMD2.G in HEK293 cells. The virus supernatant was filtered and MV4-11 cells were doubly infected with the supernatant. The cells were selected after 48 h of infection until the control cells were dead to get the stable cell line.
(§3) The cells stably expressing HiBiT-tagged protein were seeded into 96-well plates and treated with serial dilutions of compounds for the indicated time points. At the end point, the assay was performed using the Nano-Glo HiBiT Lytic Detection System (Promega) according to the manufacturer’s instruction. Luminescence was measured on a GloMax 96 Microplate Luminometer (Promega) or a Tecan Spark Multiplate reader (Tecan). DC50 was calculated using concentrations showing sigmoidal behavior with the dose–response (four parameters) equation in Prism (GraphPad).
Background: HiBiT is a short tag that completes a luciferase, so light tracks the accessible tagged protein.

A further test relates to MV4-11 cells (naive). Put plainly: alamarBlue cell viability assay. It is filed as cell-based, human. The note with it: 72 h treatment, MV4-11 cells (naive); for pEC50: read-out: EC50 (concentration that decreases cell viability by 50%). On the procedure:
Finally, to study the effect of the compounds on cancer cell survival, MV4-11 cells were treated with various concentrations of the chimeras and the cell viability was assessed after 72 h. […] As opposed to the parent inhibitor MPS1-IN-3, its derivatives except 40 were not cytotoxic (Figure S7B, Table 5). […] In addition, most of the SF1-based derivatives affected the viability of MV4-11 cells in nanomolar concentrations (Table 5).
For the alamarBlue cell viability assay, cells were seeded in 96-well plates and treated with indicated concentrations of the compounds or vehicle. A few hours before the experimental end point (72 h, unless otherwise stated), the cells were incubated with the alamarBlue reagent. Finally, fluorescence (excitation: 550 nm and emission: 600 nm) or absorbance (570 nm with reference at 600 nm) was measured on a Tecan Spark Multiplate reader (Tecan).
For orientation: The colour change of resazurin is a common sign of viable cells or microbes.

For test [2], the target named is T2, AURKA (MV4-11^AURKA-HiBiT cells) (Homo sapiens, UniProt O14965).
T2 construct: expressed in transfected cells; host or cells: MV4-11, lentiviral transduction
T2 sequence (O14965 1-403): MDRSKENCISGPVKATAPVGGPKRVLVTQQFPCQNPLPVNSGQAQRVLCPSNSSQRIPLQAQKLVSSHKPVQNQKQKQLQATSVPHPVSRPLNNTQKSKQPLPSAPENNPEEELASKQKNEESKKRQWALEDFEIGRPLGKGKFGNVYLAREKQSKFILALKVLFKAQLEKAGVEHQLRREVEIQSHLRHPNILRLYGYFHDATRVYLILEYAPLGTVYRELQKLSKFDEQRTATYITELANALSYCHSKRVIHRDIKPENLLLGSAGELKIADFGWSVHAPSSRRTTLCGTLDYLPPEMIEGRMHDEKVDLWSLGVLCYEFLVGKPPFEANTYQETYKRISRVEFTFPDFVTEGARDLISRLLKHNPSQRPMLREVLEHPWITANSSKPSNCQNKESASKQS
The test can be described thus: HiBiT assay, AURKA degradation. It is filed as cell-based. Set-up: key to Dmax (maximal degradation) AURKA: compounds with degradation less than 15% reported as “inactive”. The note with it: 6 h treatment, MV4-11^AURKA-HiBiT cells; for DC50: read-out: DC50 (half-maximal degradation concentration) AURKA. How it is done: as §1, §2, §3

In test [3] the target is T3, TTK (MV4-11^HiBiT-TTK cells) (Homo sapiens, UniProt P33981).
T3 construct: expressed in transfected cells; host or cells: MV4-11, lentiviral transduction (pRRL-PGK-HiBiT entry vector)
T3 sequence (P33981 1-857): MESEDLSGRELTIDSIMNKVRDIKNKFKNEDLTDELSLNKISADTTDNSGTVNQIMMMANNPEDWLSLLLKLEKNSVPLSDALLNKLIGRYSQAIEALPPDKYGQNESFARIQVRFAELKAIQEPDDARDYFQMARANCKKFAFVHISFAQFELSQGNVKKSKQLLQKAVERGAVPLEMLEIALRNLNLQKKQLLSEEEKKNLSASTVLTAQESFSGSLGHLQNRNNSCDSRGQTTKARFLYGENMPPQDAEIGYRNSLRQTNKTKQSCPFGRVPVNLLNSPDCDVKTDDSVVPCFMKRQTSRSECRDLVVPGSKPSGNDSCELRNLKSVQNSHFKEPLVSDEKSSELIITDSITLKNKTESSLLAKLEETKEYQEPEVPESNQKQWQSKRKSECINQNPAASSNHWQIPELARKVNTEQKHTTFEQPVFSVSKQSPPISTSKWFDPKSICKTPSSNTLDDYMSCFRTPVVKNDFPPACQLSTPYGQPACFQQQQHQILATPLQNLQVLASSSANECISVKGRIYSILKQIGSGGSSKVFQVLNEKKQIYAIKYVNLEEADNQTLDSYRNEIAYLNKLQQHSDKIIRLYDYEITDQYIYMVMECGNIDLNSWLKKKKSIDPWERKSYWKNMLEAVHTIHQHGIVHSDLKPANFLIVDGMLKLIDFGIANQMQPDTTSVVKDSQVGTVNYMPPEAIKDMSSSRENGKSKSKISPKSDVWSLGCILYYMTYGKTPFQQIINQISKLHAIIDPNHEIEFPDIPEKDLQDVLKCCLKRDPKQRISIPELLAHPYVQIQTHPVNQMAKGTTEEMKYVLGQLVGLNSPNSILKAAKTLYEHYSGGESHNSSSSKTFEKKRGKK
Put plainly: HiBiT assay, TTK degradation. Set-up: key to Dmax (maximal degradation) TTK: compounds with degradation less than 15% reported as “inactive”. The note with it: 6 h treatment, MV4-11^HiBiT-TTK cells; for DC50: read-out: DC50 (half-maximal degradation concentration) TTK. In kind it is cell-based. On the procedure:
as §1, §2, §3

The structures appear in SMILES notation. pEC50: −log10 of the molar value.

T1 sequence (Q96GD4 1-345 isoform Q96GD4-5): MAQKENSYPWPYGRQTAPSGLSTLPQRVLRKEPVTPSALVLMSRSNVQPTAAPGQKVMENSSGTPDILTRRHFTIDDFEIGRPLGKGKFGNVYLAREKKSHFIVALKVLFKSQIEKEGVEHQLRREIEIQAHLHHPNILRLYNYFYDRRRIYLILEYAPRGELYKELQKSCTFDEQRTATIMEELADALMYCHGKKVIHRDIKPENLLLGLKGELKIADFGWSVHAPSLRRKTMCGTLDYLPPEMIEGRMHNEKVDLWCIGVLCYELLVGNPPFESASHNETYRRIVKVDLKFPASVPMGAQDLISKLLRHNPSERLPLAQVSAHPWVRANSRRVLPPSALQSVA

With `CC(C)S(=O)(=O)c1ccccc1Nc1nc(Nc2ccc(N3CCN(CCCC(=O)Nc4cccc5c4C(=O)N(C4CCC(=O)NC4=O)C5=O)CC3)cc2)nc2[nH]cnc12` (centres unmarked) [Compound 27], in test [1], the “Dmax (maximal degradation) AURKB” value is recorded as 48.90% and the DC50 came out at 270 nM. Moreover, the pEC50 with MV4-11 cells (naive) is 7.04. Besides, in test [2], the “Dmax (maximal degradation) AURKA” value turned out to be 75.10% and the DC50 was determined as 4.8 nM. For the same compound, in test [3], the “Dmax (maximal degradation) TTK” value stood at 52.95% and the DC50 was 89.1 nM.

Consider `CC(C)S(=O)(=O)c1ccccc1Nc1nc(Nc2ccc(N3CCN(CCCCC(=O)Nc4cccc5c4C(=O)N(C4CCC(=O)NC4=O)C5=O)CC3)cc2)nc2[nH]cnc12` (centres unmarked) [Compound 28], for which, in test [1], the “Dmax (maximal degradation) AURKB” value is recorded as 45.95% and the DC50 worked out at 273 nM. For the same compound, the pEC50 in the test on MV4-11 cells (naive) was 6.90. Also, in test [2], the “Dmax (maximal degradation) AURKA” value stood at 69.70% and the DC50 came out at 4.85 nM. In test [3], the “Dmax (maximal degradation) TTK” value amounted to 59.05% and the DC50 amounted to 84.5 nM.

On to `CC(C)S(=O)(=O)c1ccccc1Nc1nc(Nc2ccc(N3CCN(C(=O)CCC(=O)NCCNc4cccc5c4C(=O)N(C4CCC(=O)NC4=O)C5=O)CC3)cc2)nc2[nH]cnc12` (centres unmarked) [Compound 30], for which, in test [1], the “DC50 (half-maximal degradation concentration) AURKB” value is “– (compounds with degradation less than 25% were not calculated and reported as “–”)”; the “Dmax (maximal degradation) AURKB” value is on record as 19.90%. Further, the pEC50 in the test on MV4-11 cells (naive) is 6.39. Moreover, in test [2], the “Dmax (maximal degradation) AURKA” value was determined as 49.10% and the DC50 is 17 nM. Further, in test [3], the “Dmax (maximal degradation) TTK” value is listed as 27.20% and the DC50 was determined as 468 nM.

On to `COc1cc(N2CCC(OCC(=O)NCCNc3cccc4c3C(=O)N(C3CCC(=O)NC3=O)C4=O)CC2)ccc1Nc1nc(Nc2ccccc2S(=O)(=O)C(C)C)c2nc[nH]c2n1` (centres unmarked) [Compound 34], for which, in test [1], the “DC50 (half-maximal degradation concentration) AURKB” value was “– (compounds with degradation less than 25% were not calculated and reported as “–”)”; the “Dmax (maximal degradation) AURKB” value was “inactive”. Moreover, the “EC50 (concentration that decreases cell viability by 50%)” value in the test on MV4-11 cells (naive) was “— (compounds with decrease of cell viability less than 50% were not calculated and reported as “—”)”. Further, in test [2], the “DC50 (half-maximal degradation concentration) AURKA” value was “– (compounds with degradation less than 25% were not calculated and reported as “–”)”; the “Dmax (maximal degradation) AURKA” value is “inactive”. In addition, in test [3], the “DC50 (half-maximal degradation concentration) TTK” value was “– (compounds with degradation less than 25% were not calculated and reported as “–”)”; the “Dmax (maximal degradation) TTK” value was “inactive”.

In the case of `COc1cc(N2CCC(OCC(=O)NCCCNc3cccc4c3C(=O)N(C3CCC(=O)NC3=O)C4=O)CC2)ccc1Nc1nc(Nc2ccccc2S(=O)(=O)C(C)C)c2nc[nH]c2n1` (centres unmarked) [Compound 35], in test [1], the “DC50 (half-maximal degradation concentration) AURKB” value was “– (compounds with degradation less than 25% were not calculated and reported as “–”)”; the “Dmax (maximal degradation) AURKB” value is “inactive”. Also, the “EC50 (concentration that decreases cell viability by 50%)” value in the test on MV4-11 cells (naive) is “— (compounds with decrease of cell viability less than 50% were not calculated and reported as “—”)”. Moreover, in test [2], the “DC50 (half-maximal degradation concentration) AURKA” value is “– (compounds with degradation less than 25% were not calculated and reported as “–”)”; the “Dmax (maximal degradation) AURKA” value is “inactive”. In test [3], the “DC50 (half-maximal degradation concentration) TTK” value is “– (compounds with degradation less than 25% were not calculated and reported as “–”)”; the “Dmax (maximal degradation) TTK” value is “inactive”.

As to `COc1cc(N2CCC(OCC(=O)NCCCCNc3cccc4c3C(=O)N(C3CCC(=O)NC3=O)C4=O)CC2)ccc1Nc1nc(Nc2ccccc2S(=O)(=O)C(C)C)c2nc[nH]c2n1` (centres unmarked) [Compound 36], in test [1], the “DC50 (half-maximal degradation concentration) AURKB” value was “– (compounds with degradation less than 25% were not calculated and reported as “–”)”; the “Dmax (maximal degradation) AURKB” value was “inactive”. The “EC50 (concentration that decreases cell viability by 50%)” value with MV4-11 cells (naive) is “— (compounds with decrease of cell viability less than 50% were not calculated and reported as “—”)”. For the same compound, in test [2], the “DC50 (half-maximal degradation concentration) AURKA” value was “– (compounds with degradation less than 25% were not calculated and reported as “–”)”; the “Dmax (maximal degradation) AURKA” value is “inactive”. In test [3], the “DC50 (half-maximal degradation concentration) TTK” value is “– (compounds with degradation less than 25% were not calculated and reported as “–”)”; the “Dmax (maximal degradation) TTK” value is “inactive”.

With `COc1cc(N2CCC(OCC(=O)NCCOCCOCCNc3cccc4c3C(=O)N(C3CCC(=O)NC3=O)C4=O)CC2)ccc1Nc1nc(Nc2ccccc2S(=O)(=O)C(C)C)c2nc[nH]c2n1` (centres unmarked) [Compound 38], in test [1], the “DC50 (half-maximal degradation concentration) AURKB” value is “– (compounds with degradation less than 25% were not calculated and reported as “–”)”; the “Dmax (maximal degradation) AURKB” value was “inactive”. For the same compound, in the test with MV4-11 cells (naive), the “EC50 (concentration that decreases cell viability by 50%)” value is “— (compounds with decrease of cell viability less than 50% were not calculated and reported as “—”)”. Moreover, in test [2], the “DC50 (half-maximal degradation concentration) AURKA” value was “– (compounds with degradation less than 25% were not calculated and reported as “–”)”; the “Dmax (maximal degradation) AURKA” value is “inactive”. Also, in test [3], the “DC50 (half-maximal degradation concentration) TTK” value was “– (compounds with degradation less than 25% were not calculated and reported as “–”)”; the “Dmax (maximal degradation) TTK” value is recorded as 16.10%.

Take `COc1cc(N2CCC(OCC(=O)N3CCN(c4cccc5c4C(=O)N(C4CCC(=O)NC4=O)C5=O)CC3)CC2)ccc1Nc1nc(Nc2ccccc2S(=O)(=O)C(C)C)c2nc[nH]c2n1` (centres unmarked) [Compound 40]: in test [1], the “Dmax (maximal degradation) AURKB” value amounted to 43.70% and the DC50 was found to be 1680 nM. Besides, in the test on MV4-11 cells (naive), the pEC50 was 6.08. In addition, in test [2], the “Dmax (maximal degradation) AURKA” value is 41.60% and the DC50 came out at 282 nM. For the same compound, in test [3], the “DC50 (half-maximal degradation concentration) TTK” value is “– (compounds with degradation less than 25% were not calculated and reported as “–”)”; the “Dmax (maximal degradation) TTK” value was 23.00%.
